Data from patent US7396849B2, “4-(Condensed cyclicmethyl)-imidazole-2-thiones acting as α2 adrenergic agonists” (Allergan, Inc., priority 2004, dated 2008).

Assays:
[1] = test system: Chung Model of Neuropathic Pain; assay: Chung model of neuropathic pain (tactile allodynia, von Frey hairs); format: in vivo, rats; settings: 30 min following drug administration
Text: A model in accordance with Kim and Chung 1992, Pain […], pp 355-363 (Chung model), for chronic pain (in particular peripheral neuropathy) involves the surgical ligation of the L5 (and optionally the L6) spinal nerves on one side in experimental animals. Rats recovering from the surgery gain weight and display a level of general activity similar to that of normal rats. However, these rats develop abnormalities of the foot, wherein the hindpaw is moderately everted and the toes are held together. More importantly, the hindpaw on the side affected by the surgery appears to become sensitive to pain from low-threshold mechanical stimuli, such as that producing a faint sensation of touch in a human, within about 1 week following surgery. This sensitivity to normally non-painful touch is called “tactile allodynia” and lasts for at least two months. The response includes lifting the affected hindpaw to escape from the stimulus, licking the paw and holding it in the air for many seconds. None of these responses is normally seen in the control group.
Rats are anesthetized before surgery. The surgical site is shaved and prepared either with betadine or Novacaine. Incision is made from the thoracic vertebra XIII down toward the sacrum. Muscle tissue is separated from the spinal vertebra (left side) at the L4-S2 levels. The L6 vertebra is located and the transverse process is carefully removed with a small rongeur to expose the L4-L6 spinal nerves. The L5 and L6 spinal nerves are isolated and tightly ligated with 6-0 silk thread. The same procedure is done on the right side as a control, except no ligation of the spinal nerves is performed.
A complete hemostasis is confirmed, then the wounds are sutured. A small amount of antibiotic ointment is applied to the incised area, and the rat is transferred to the recovery plastic cage under a regulated heat-temperature lamp. On the day of the experiment, at least seven days after the surgery, typically six rats per test group are administered the test drugs by intraperitoneal (i.p.) injection or oral gavage. […], the compounds are formulated in d H2O and given in a volume of 1 ml/kg body weight using an 18-gauge, 3 inch gavage needle that is slowly inserted through the esophagus into the stomach.
Tactile allodynia is measured prior to and 30 minutes after drug administration using von Frey hairs that are a series of fine hairs with incremental differences in stiffness. Rats are placed in a plastic cage with a wire mesh bottom and allowed to acclimate for approximately 30 minutes. The von Frey hairs are applied perpendicularly through the mesh to the mid-plantar region of the rats' hindpaw with sufficient force to cause slight buckling and held for 6-8 seconds. The applied force has been calculated to range from 0.41 to 15.1 grams. If the paw is sharply withdrawn, it is considered a positive response. A normal animal will not respond to stimuli in this range, but a surgically ligated paw will be withdrawn in response to a 1-2 gram hair. The 50% paw withdrawal threshold is determined using the method of Dixon, W. J., Ann. Rev. Pharmacol. Toxicol. 20:441-462 (1980) hereby incorporated by reference. The post-drug threshold is compared to the pre-drug threshold and the percent reversal of tactile sensitivity is calculated based on a normal threshold of 15.1 grams.
All measurements 30 min following drug administration. p value<0.001 compared to pretreatment values.

[2] = test system: Sprague-Dawley rats; assay: Sedative activity (exploratory behavior after i.p. injection); format: in vivo; settings: intraperitoneally, up to a dose of 1 mg/kg
Procedure: To test sedation, six male Sprague-Dawley rats are given up to 3 mg/kg of the test compound in a saline or DMSO vehicle by intraperitoneal injection (i.p.). Sedation is graded 30 minutes following administration of the drug by monitoring locomotor skills as follows.
The Sprague-Dawley rats are weighed and 1 ml/kg body weight of an appropriate concentration (ie. 3 mg/ml for a final dose of 3 mg/kg) drug solution is injected intraperitoneally. Typically the test compound is formulated in approximately 10 to 50% DMSO. The results are compared to controls that are injected with 1 ml/kg saline or 10 to 50% DMSO. Rat activity is then determined 30 minutes after injection of the drug solution. Rats are placed in a dark covered chamber and a digicom analyzer (Omnitech Electronic) quantitates their exploratory behavior for a five-minute period. The machine records each time the rat interrupts an array of 32 photoelectric beams in the X and Y orientation.
Effects on Cardiovascular System

[3] = molecular target: T1, alpha2B adrenergic receptors (Homo sapiens, UniProt P18089); assay: RSAT assay (Receptor Selection and Amplification Technology), alpha2B; format: cell-based; settings: NIH-3T3 cells, ratio of maximal effect to that of standard full agonist brimonidine, NA = not active below 10 micromolar
T1 construct: expressed in transfected cells; host or cells: NIH-3T3 cells
T1 sequence (P18089 1-450): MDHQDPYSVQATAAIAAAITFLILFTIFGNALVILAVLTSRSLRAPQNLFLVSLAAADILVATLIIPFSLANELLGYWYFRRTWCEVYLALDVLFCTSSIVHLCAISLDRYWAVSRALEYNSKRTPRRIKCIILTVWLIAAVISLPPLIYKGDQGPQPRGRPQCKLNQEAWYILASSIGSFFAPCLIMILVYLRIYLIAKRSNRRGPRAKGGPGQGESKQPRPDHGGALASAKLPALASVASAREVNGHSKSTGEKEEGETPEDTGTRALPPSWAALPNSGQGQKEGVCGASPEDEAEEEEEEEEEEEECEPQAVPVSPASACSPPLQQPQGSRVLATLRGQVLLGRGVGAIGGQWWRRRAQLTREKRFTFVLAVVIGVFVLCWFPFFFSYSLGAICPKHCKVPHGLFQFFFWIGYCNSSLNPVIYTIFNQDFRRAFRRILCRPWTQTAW
Text: The imidazole-2-thione compounds of the invention are agonists of alpha2 adrenergic receptors. Many compounds of the invention are specific or selective agonists of alpha2B and/or to a lesser extent alpha2C adrenergic receptors, in preference over alpha2A adrenergic receptors. […] 76, pp. 308-311 (incorporated herein by reference) and is also described below. Another reference pertinent to this assay is Conklin et al. (1993) Nature 363:274-6, Receptor Selection and Amplification Technology (RSAT) assay, also incorporated herein by reference.
The RSAT assay measures a receptor-mediated loss of contact inhibition that results in selective proliferation of receptor-containing cells in a mixed population of confluent cells. The increase in cell number is assessed with an appropriate transfected marker gene such as β-galactosidase, the activity of which can be easily measured in a 96-well format. Receptors that activate the G protein, Gq, elicit this response. Alpha2 receptors, which normally couple to Gi, activate the RSAT response when coexpressed with a hybrid Gq protein that has a Gi receptor recognition domain, called Gq/i5.
NIH-3T3 cells are plated at a density of 2×10^6 cells in 15 cm dishes and maintained in Dulbecco's modified Eagle's medium supplemented with 10% calf serum. One day later, cells are cotransfected by calcium phosphate precipitation with mammalian expression plasmids encoding p-SV-β-galactosidase (5-10 μg), receptor (1-2 μg) and G protein (1-2 μg). 40 μg salmon sperm DNA may also be included in the transfection mixture. Fresh media is added on the following day and 1-2 days later, cells are harvested and frozen in 50 assay aliquots. Cells are thawed and 100 μl added to 100 μl aliquots of various concentrations of drugs in triplicate in 96-well dishes. Incubations continue 72-96 hr at 37° C. After washing with phosphate-buffered saline, β-galactosidase enzyme activity is determined by adding 200 μl of the chromogenic substrate (consisting of 3.5 mM o-nitrophenyl-β-D-galactopyranoside and 0.5% nonidet P-40 in phosphate buffered saline), incubating overnight at 30° C. and measuring optical density at 420 nm. The absorbance is a measure of enzyme activity, which depends on cell number and reflects a receptor-mediated cell proliferation. The efficacy or intrinsic activity is calculated as a ratio of the maximal effect of the drug to the maximal effect of a standard full agonist for each receptor subtype. Brimonidine, also called UK14304, the chemical structure of which is shown below, is used as the standard agonist for the alpha2A, alpha2B and alpha2C receptors.
The results of the RSAT assay with several exemplary compounds of the invention are disclosed in Table 1 above together with the chemical formulas of these examplary compounds. NA stands for “not active” at cohcentrations less than 10 micromolar.

Compound	% Pain Reversal ± SEM ([1]; 10 μg/kg i.p.) [%]	% Pain Reversal ± SEM ([1]; 30 μg/kg i.p.) [%]	% Pain Reversal ± SEM ([1]; 30 μg/kg p.o.) [%]	% Pain Reversal ± SEM ([1]; 300 μg/kg i.p.) [%]	sedative effect [2]	Intrinsic Activity Alpha 2B [3]	% Pain Reversal ± SEM ([1]; 3 μg/kg p.o.) [%]	% Pain Reversal ± SEM ([1]; 10 μg/kg p.o.) [%]	% Pain Reversal ± SEM ([1]; 100 μg/kg p.o.) [%]
CC(c1c[nH]c(=S)[nH]1)c1cccc2ncccc12 (racemic) [Compound 7, 4-(1-quinolin-5-yl-ethyl)-1,3-dihydro-imidazole-2-thione]	2.9 ± 0.7	65.8 ± 6.1	77.0 ± 5.1	77.7 ± 7.2	no sedative effect	0.90			
CC(c1c[nH]c(=S)[nH]1)c1cccc2ncccc12 (single isomer, unassigned; (-)) [Compound 15, (−)-4-(1-quinolin-5-yl-ethyl)-1,3-dihydro-imidazole-2-thione]			82.0 ± 6.2		no sedative effect	0.89	58.0 ± 5.3	78.0 ± 4.6	81.0 ± 8.1
